In data set [1] the test system is rat liver microsomes (RLM). Briefly: Metabolic stability in rat liver microsomes (RLM). The settings on record: for RLM, % (half-life as % vs. the related nondeuterated compound) / RLM, %, class symbol (metabolized or not): RLM assay; for RLM, % (half-life as % vs. the related nondeuterated compound): values in square brackets are within 10% (assay's accuracy), no deuteration effect; for RLM, %, class symbol (metabolized or not): last time point 120 min. Background: Liver microsomes are vesicles of endoplasmic reticulum, rich in cytochrome P450 enzymes.

Data set [2] has as its target T1, hrMAO-A (Homo sapiens, UniProt P21397).
T1 construct: purchased XenoTech Lot #8213001
T1 sequence (P21397 1-527): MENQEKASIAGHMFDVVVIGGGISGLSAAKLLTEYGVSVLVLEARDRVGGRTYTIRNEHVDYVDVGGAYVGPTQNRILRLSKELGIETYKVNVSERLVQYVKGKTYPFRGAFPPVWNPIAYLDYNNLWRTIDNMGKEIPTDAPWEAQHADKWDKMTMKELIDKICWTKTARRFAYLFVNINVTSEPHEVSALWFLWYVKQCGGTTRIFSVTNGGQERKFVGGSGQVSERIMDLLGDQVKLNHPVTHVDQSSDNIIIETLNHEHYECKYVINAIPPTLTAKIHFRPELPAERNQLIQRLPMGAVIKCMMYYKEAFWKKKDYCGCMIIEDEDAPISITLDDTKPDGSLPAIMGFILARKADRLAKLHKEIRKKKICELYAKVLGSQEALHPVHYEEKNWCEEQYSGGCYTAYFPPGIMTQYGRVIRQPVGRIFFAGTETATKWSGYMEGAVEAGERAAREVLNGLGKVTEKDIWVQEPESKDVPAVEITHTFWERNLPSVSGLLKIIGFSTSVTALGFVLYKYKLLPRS
Kind of data set: Metabolic stability in the presence of hrMAO-A. It is filed as in vitro ADME. As to conditions: for MAO, %, class symbol (metabolized or not) / MAO, % (half-life as % vs. the related nondeuterated compound): MAO-A assay; for MAO, %, class symbol (metabolized or not): last time point 120 min; for MAO, % (half-life as % vs. the related nondeuterated compound): values in square brackets are within 10% (assay's accuracy), no deuteration effect. The method, then: The reaction mixture was prepared as described below. The co-dosed TAs were added into the reaction mixture at a final concentration of 1 microM each. The positive control, kynuramine (25 microM), was run simultaneously with the TAs in a separate reaction. The reaction mixture (without TAs or kynuramine) was equilibrated in a shaking water bath at 37° C. for 5 minutes. The reaction was initiated by the addition of the TAs or kynuramine, and the mixture was incubated in a shaking water bath at 37° C. Aliquots (100 microL) of the TA reaction mixture were withdrawn at 0, 5, 10, 20, 30, 60, and 120 minutes. Aliquots (100 microL) of the positive control reaction mixture were withdrawn at 0 and 30 minutes. TA and kynuramine samples were immediately combined with 100 microL of ice-cold 100% MeCN containing 0.1% formic acid and IS to terminate the reaction. The samples were then mixed and centrifuged to precipitate proteins. All TA samples were assayed by LC-HRAMS. The PARR (analyte to IS) at each time point was compared to the PARR at time 0 to determine the percent remaining at each time point. Reaction composition: hrMAO 0.02 mg/mL; Potassium Phosphate, pH 7.4 100 mM; Magnesium Chloride 5 mM; Test Articles (each) 1 microM.

A short description of data set [3]: PK studies in rats (cassette dosing, oral gavage or catheter; brain and plasma levels). As to conditions: % change vs. non-deuterated material; for Deuterium Kinetic Isotope Effect (% change) AUC / Deuterium Kinetic Isotope Effect (% change) T1/2: 5 mg/kg; for Deuterium Kinetic Isotope Effect (% change) BPR, 15 min: sacrificed at 15 min; for Deuterium Kinetic Isotope Effect (% change) BPR, 15 min / Deuterium Kinetic Isotope Effect (% change) BPR, 30 min: parent drug in brain and plasma; for Deuterium Kinetic Isotope Effect (% change) BPR, 30 min: sacrificed at 30 min. The format is in vivo, Wistar female rats. The method, then: The key PK parameters (presented as a % change vs. non-deuterated materials) are presented in Table 3 to include half-life (T1/2), area under the curve (AUC), bioavailability (F) and blood-to-plasma ration (BPR). Pharmacokinetics of the deuterated tryptamines was studied in rats. In a typical experiment, run as a cassette dosing, two groups of 5 Wistar female rats (200-250 g) with surgically inserted jugular vein catheter (Charles River, Andover, MA) were fasted for 12 h and then administered 5 mg/kg of the deuterated and 5 mg/kg of the related non-deuterated analog, by oral gavage or via a catheter for each group. At time points 0, 15, 30, 60 min, and 2, 4, 8, and 24 h, the resulting plasma was analyzed for the parent molecule using LC/MS spectroscopy. Two separate groups of 5 animals were used for determining blood-to-plasma ratio (BPR). Each group was sacrificed at time points 15 and 30 min, respectively, and the concentration of the parent drug was determined in the brain and plasma by LC/MS spectroscopy.

Setting [4] is: Table 5, d8 and d10 analogs, hrMAO-A.

Each structure is given as a SMILES string.

For the compound `[2H]C([2H])(NCC)C([2H])([2H])c1c[nH]c2cccc(O)c12`, the “RLM, % (half-life as % vs. the related nondeuterated compound)” value in data set [1] is “[94] %”. With `COc1ccc2[nH]cc(CCN(C)C)c2c1` [5-MeO-DMT, reference compound], the “RLM, %, class symbol (metabolized or not)” value in data set [1] was “R”. For the same compound, in data set [2], the “MAO, %, class symbol (metabolized or not)” value is reported as “R”.

Turning to `[2H]C([2H])(c1c[nH]c2cccc(O)c12)C([2H])([2H])N(C(C)C)C(C)C`, the “RLM, % (half-life as % vs. the related nondeuterated compound)” value in data set [1] is “[97] %”. On the same count and under the same terms, then `[2H]C([2H])(c1c[nH]c2ccc(OC)cc12)C([2H])([2H])N(CC)CC`, with “[95] %”. As to `CNCCc1c[nH]c2ccccc12` [reference compound], in data set [1], the “RLM, %, class symbol (metabolized or not)” value is on record as “R”. The “MAO, %, class symbol (metabolized or not)” value in data set [2] is given as “R”. Take `[2H]C([2H])(NCC)C([2H])([2H])c1c[nH]c2ccccc12`: the “MAO, % (half-life as % vs. the related nondeuterated compound)” value in data set [2] was found to be 140%. For `CC(C)NCCc1c[nH]c2cccc(O)c12`, the “RLM, %, class symbol (metabolized or not)” value in data set [1] is on record as “R”. `[2H]C([2H])(Cc1c[nH]c2cccc(O)c12)N(C)C` [PI-α,α-d2]: in data set [3], the “Deuterium Kinetic Isotope Effect (% change) AUC” value is recorded as 75 % change; the “Deuterium Kinetic Isotope Effect (% change) T1/2” value came out at 50 % change; the “Deuterium Kinetic Isotope Effect (% change) BPR, 15 min” value turned out to be 100 % change; the “Deuterium Kinetic Isotope Effect (% change) BPR, 30 min” value amounted to 150 % change. Turning to `[2H]C([2H])(Cc1c[nH]c2ccccc12)N(C)C` [DMT-d2], the “% Remaining of Initial 0 min” value in data set [1] (Table 2, RLM) is on record as 100%; in data set [2] (Table 3, hrMAO-A) it was 100%. Besides, the “% Remaining of Initial 60 min” value was 32.0% in data set [1] (Table 2, RLM, 60 min) and 76.0% in data set [2] (Table 3, hrMAO-A, 60 min). Moreover, in data set [2] (Table 3, hrMAO-A), the Half-life is greater than 2 h. For the compound `CCNCCc1c[nH]c2cccc(O)c12`, the “RLM, %, class symbol (metabolized or not)” value in data set [1] is “R”.

Turning to `CCN(CC)CCc1c[nH]c2ccc(OC)cc12`, the “RLM, %, class symbol (metabolized or not)” value in data set [1] is “R”. On to `[2H]c1ccc2[nH]c([2H])c(CCN([2H])CC)c2c1O`, for which the “RLM, %, class symbol (metabolized or not)” value in data set [1] was “R”. Consider `[2H]C([2H])(c1c[nH]c2cccc(OC)c12)C([2H])([2H])N(C)C`, for which the “RLM, % (half-life as % vs. the related nondeuterated compound)” value in data set [1] came to 190%.

In the case of `COc1cccc2[nH]cc(CCN(C)C)c12` [reference compound], in data set [1], the “RLM, %, class symbol (metabolized or not)” value is on record as “R”. The “MAO, %, class symbol (metabolized or not)” value in data set [2] is on record as “R”. `C=CCNCCc1c[nH]c2ccccc12`: the “RLM, %, class symbol (metabolized or not)” value in data set [1] is given as “R”. On to `[2H]C([2H])(Cc1c[nH]c2ccccc12)NC([2H])([2H])C([2H])([2H])[2H]`, for which the “MAO, % (half-life as % vs. the related nondeuterated compound)” value in data set [2] was determined as 170%. In the case of `[2H]C([2H])([2H])N(C([2H])([2H])[2H])C([2H])([2H])C([2H])([2H])c1c[nH]c2ccccc12` [DMT-d10], the “% Remaining of Initial 0 min” value in data set [1] (Table 2, RLM) is on record as 100%; in data set [1] (Table 4, d8 and d10 analogs, RLM), 100%; in data set [2] (Table 3, hrMAO-A), 100%; in data set [2] (setting [4]), 100.0%. Moreover, the “% Remaining of Initial 10 min” value in data set [1] (Table 4, d8 and d10 analogs, RLM, 10 min) stood at 56.0%. In addition, in data set [1] (rat liver microsomes, vs. DMT), the “kinetic deuterium isotope effect / metabolic stability, in words” value was “Further enhancement of metabolic stability”. Also, the “metabolic stability in the MAO-A enzymatic assay, in words” value in data set [2] (MAO-A enzymatic assay) is on record as “superiority”. Also, the Half-life in data set [2] (Table 3, hrMAO-A) is greater than 2 h; in data set [2] (setting [4]), greater than 2 h. The “% Remaining of Initial 5 min” value in data set [2] (Table 5, d8 and d10 analogs, hrMAO-A, 5 min) was 99.0%. For the compound `CC(C)N(CCc1c[nH]c2cccc(O)c12)C(C)C`, the “RLM, %, class symbol (metabolized or not)” value in data set [1] is “R”. `[2H]C([2H])(NC)C([2H])([2H])c1c[nH]c2cccc(O)c12`: in data set [1], the “RLM, % (half-life as % vs. the related nondeuterated compound)” value stood at 160%.

Consider `CCN(CC)CCc1c[nH]c2ccccc12`, for which the “RLM, %, class symbol (metabolized or not)” value in data set [1] is “R”. Take `CNCCc1c[nH]c2cccc(O)c12` [reference compound]: the “RLM, %, class symbol (metabolized or not)” value in data set [1] was “R”. The “MAO, %, class symbol (metabolized or not)” value in data set [2] is “R”. As to `CC(C)NCCc1c[nH]c2ccccc12`, in data set [1], the “RLM, %, class symbol (metabolized or not)” value was “R”. Turning to `CN(C)CCc1c[nH]c2ccc(O)cc12` [reference compound], the “RLM, %, class symbol (metabolized or not)” value in data set [1] is reported as “R”. The “MAO, %, class symbol (metabolized or not)” value in data set [2] is “R”. In the case of `CCN(C)CCc1c[nH]c2ccc(O)cc12` [reference compound], the “RLM, %, class symbol (metabolized or not)” value in data set [1] is reported as “R”. Further, the “MAO, %, class symbol (metabolized or not)” value in data set [2] is listed as “R”.

For the compound `[2H]C([2H])(c1c[nH]c2ccccc12)C([2H])([2H])N(C)C` [DMT-d4], in data set [1] (Table 2, RLM), the “% Remaining of Initial 0 min” value came out at 100%. Moreover, in data set [2] (Table 3, hrMAO-A), the Half-life was greater than 2 h and the “% Remaining of Initial 0 min” value was 100%. Take `CCN(C)CCc1c[nH]c2cccc(OC)c12` [reference compound]: the “RLM, %, class symbol (metabolized or not)” value in data set [1] is given as “R”. Moreover, the “MAO, %, class symbol (metabolized or not)” value in data set [2] is “R”.

With `C=CCN(CC=C)CCc1c[nH]c2ccccc12`, the “RLM, %, class symbol (metabolized or not)” value in data set [1] was “R”. With `CCN(CC)CCc1c[nH]c2cccc(OC)c12`, the “RLM, %, class symbol (metabolized or not)” value in data set [1] is recorded as “R”. `CN(C)CCc1c[nH]c2ccccc12` [DMT]: the “% Remaining of Initial 0 min” value in data set [1] (Table 2, RLM) was determined as 100%; in data set [2] (Table 3, hrMAO-A), 100%. Besides, the “% Remaining of Initial 20 min” value in data set [1] (Table 2, RLM, 20 min) worked out at 41.0%. For the compound `[2H]C([2H])(Cc1c[nH]c2ccc(OC)cc12)N(C)C` [5-MeO-DMT-α,α-d2], in data set [3], the “Deuterium Kinetic Isotope Effect (% change) AUC” value turned out to be 60 % change; the “Deuterium Kinetic Isotope Effect (% change) T1/2” value was 30 % change; the “Deuterium Kinetic Isotope Effect (% change) BPR, 15 min” value was determined as 120 % change; the “Deuterium Kinetic Isotope Effect (% change) BPR, 30 min” value worked out at 180 % change. On to `CCN(C)CCc1c[nH]c2ccccc12` [reference compound], for which the “RLM, %, class symbol (metabolized or not)” value in data set [1] is reported as “R”. For the same compound, in data set [2], the “MAO, %, class symbol (metabolized or not)” value is on record as “R”. As for `CCNCCc1c[nH]c2ccccc12` [reference compound], in data set [1], the “RLM, %, class symbol (metabolized or not)” value is “R”. For the same compound, in data set [2], the “MAO, %, class symbol (metabolized or not)” value was “R”.

Regarding `CCN(C)CCc1c[nH]c2ccc(OC)cc12` [reference compound], the “RLM, %, class symbol (metabolized or not)” value in data set [1] is reported as “R”. In addition, the “MAO, %, class symbol (metabolized or not)” value in data set [2] is recorded as “R”.

Consider `[2H]C([2H])([2H])C([2H])([2H])NC([2H])([2H])C([2H])([2H])c1c[nH]c2cccc(O)c12`, for which, in data set [1], the “RLM, % (half-life as % vs. the related nondeuterated compound)” value was “[93] %”. Consider `CCN(CC)CCc1c[nH]c2ccc(O)cc12`, for which, in data set [1], the “RLM, %, class symbol (metabolized or not)” value is “R”.

The values are drawn from patent publication US12291499B2, “Deuterated tryptamine derivatives and methods of use” (priority 2020, dated 2025).
